Reference: article PMC6345968, “Structural basis for species-selective targeting of Hsp90 in a pathogenic fungus” (Nature Communications, 2019)
Read-outs that look alike come from different tables or passages of the source.

Columns and labels:
[1] = target: T1, Hsp90 in C. albicans (SC5314) lysate (Candida albicans, UniProt P46598); assay: biochemical; type: binding; conditions: for Ratio re. GdA: EC50 relative to GdA; for FP signal: raw
T1 construct: endogenous in cells; host or cells: C. albicans SC5314 whole-cell lysate

Hsp90 in HEPG2 lysate = conditions: for FP signal: raw
[2] = SC5314 lysate, 0.457 nM compound
[3] = SC5314 lysate, 1.372 nM compound
[4] = SC5314 lysate, 4.115 nM compound
[5] = SC5314 lysate, […] nM compound
[6] = SC5314 lysate, 37.037 nM compound
[7] = SC5314 lysate, 111.111 nM compound
[8] = SC5314 lysate, 333.333 nM compound
[9] = SC5314 lysate, 1000 nM compound
[10] = SC5314 lysate, 3000 nM compound
[11] = ratio of GdA-normalized EC50s, human over fungal lysate
[12] = ratio of GdA-relative EC50 ratios, HepG2 over SC5314
[13] = EC50 / EC50 of GdA in HepG2 lysate
[14] = EC50 relative to GdA, HEPG2 lysate
[15] = HEPG2 lysate, log concentration 0.137354 (1.372 nM)
[16] = HEPG2 lysate, log concentration 0.61437 (4.115 nM)
[17] = HEPG2 lysate, log concentration 1.09153 (12.346 nM)
[18] = HEPG2 lysate, log concentration 1.56864 (37.037 nM)
[19] = HEPG2 lysate, log concentration 2.04576 (111.111 nM)
[20] = HEPG2 lysate, log concentration 2.52288 (333.333 nM)
[21] = HEPG2 lysate, log concentration 3 (1000 nM)
[22] = HEPG2 lysate, log concentration 3.47712 (3000 nM)
[23] = HEPG2 lysate, log concentration -0.340084 (0.457 nM)
[24] = HepG2 lysate, 0.457 nM compound
[25] = HepG2 lysate, 1.372 nM compound
[26] = HepG2 lysate, 4.115 nM compound
[27] = HepG2 lysate, […] nM compound
[28] = HepG2 lysate, 37.037 nM compound
[29] = HepG2 lysate, 111.111 nM compound
[30] = HepG2 lysate, 333.333 nM compound
[31] = HepG2 lysate, oxime panel experiment 220817

T1 sequence (P46598 whole entry): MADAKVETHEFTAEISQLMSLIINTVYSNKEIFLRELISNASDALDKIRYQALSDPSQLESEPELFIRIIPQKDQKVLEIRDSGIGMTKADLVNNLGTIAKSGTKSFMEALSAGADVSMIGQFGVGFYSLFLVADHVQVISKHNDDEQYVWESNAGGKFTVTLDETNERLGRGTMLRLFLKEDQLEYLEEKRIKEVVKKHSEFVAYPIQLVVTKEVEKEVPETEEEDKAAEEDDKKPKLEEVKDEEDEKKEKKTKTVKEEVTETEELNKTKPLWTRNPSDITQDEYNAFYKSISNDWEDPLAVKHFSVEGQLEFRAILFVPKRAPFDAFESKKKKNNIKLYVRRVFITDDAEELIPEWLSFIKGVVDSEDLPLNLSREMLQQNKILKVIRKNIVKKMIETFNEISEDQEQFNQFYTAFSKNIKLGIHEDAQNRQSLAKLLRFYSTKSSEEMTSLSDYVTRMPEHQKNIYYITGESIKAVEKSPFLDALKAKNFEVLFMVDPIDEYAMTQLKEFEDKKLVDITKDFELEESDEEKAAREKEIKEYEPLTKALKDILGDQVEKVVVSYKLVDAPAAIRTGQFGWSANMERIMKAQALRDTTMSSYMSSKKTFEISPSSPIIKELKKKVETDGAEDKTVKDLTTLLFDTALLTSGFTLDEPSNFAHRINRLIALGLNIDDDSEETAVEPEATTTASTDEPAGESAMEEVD

CC1CC2OC2C=CC=CC(=NOCc2cccc(F)c2)Cc2c(Cl)c(O)cc(O)c2C(=O)O1 (mixture of isomers) [compound 227]
Ratio re. GdA ([1]; SC5314 lysate): 21.164 | FP signal (raw) ([1]; SC5314 lysate, 0.457 nM): 194 | FP signal relative to 0 nM [1, 2]: 0.9652 | FP signal [1, 2]: 194 | FP signal (raw) ([1]; SC5314 lysate, 1.372 nM): 195 | FP signal relative to 0 nM [1, 3]: 0.9701 | FP signal [1, 3]: 195 | FP signal (raw) ([1]; SC5314 lysate, 4.115 nM): 190 | FP signal relative to 0 nM [1, 4]: 0.9453 | FP signal [1, 4]: 190 | FP signal (raw) ([1]; SC5314 lysate, […] nM): 193 | FP signal relative to 0 nM [1, 5]: 0.9602 | FP signal [1, 5]: 193 | FP signal (raw) ([1]; SC5314 lysate, 37.037 nM): 178 | FP signal relative to 0 nM [1, 6]: 0.8856 | FP signal [1, 6]: 178 | FP signal (raw) ([1]; SC5314 lysate, 111.111 nM): 162 | FP signal relative to 0 nM [1, 7]: 0.806 | FP signal [1, 7]: 162 | FP signal (raw) ([1]; SC5314 lysate, 333.333 nM): 111 | FP signal relative to 0 nM [1, 8]: 0.5522 | FP signal [1, 8]: 111 | FP signal (raw) ([1]; SC5314 lysate, 1000 nM): 56 | FP signal relative to 0 nM [1, 9]: 0.2786 | FP signal [1, 9]: 56 | FP signal (raw) ([1]; SC5314 lysate, 3000 nM): 32 | FP signal relative to 0 nM [1, 10]: 0.1592 | FP signal [1, 10]: 32 | EC50 ([1]; SC5314 lysate, not normalized, oxime panel experiment 220817, read-out: EC50): 360 nM | HepG2/SC5314 [1, 11]: 1.415 | HepG2/SC5314 [1, 12]: 1.415 | Ratio rel. GdA (HepG2) (Hsp90 in HEPG2 lysate; [13]): 29.9414 | Ratio rel. GdA (HepG2) (Hsp90 in HEPG2 lysate; [14]): 29.9414 | FP signal, Fxn Control (Hsp90 in HEPG2 lysate; [15]): 0.976 | FP signal, Fxn Control (Hsp90 in HEPG2 lysate; [16]): 0.9615 | FP signal, Fxn Control (Hsp90 in HEPG2 lysate; [17]): 0.9712 | FP signal, Fxn Control (Hsp90 in HEPG2 lysate; [18]): 0.9519 | FP signal, Fxn Control (Hsp90 in HEPG2 lysate; [19]): 0.9038 | FP signal, Fxn Control (Hsp90 in HEPG2 lysate; [20]): 0.7933 | FP signal, Fxn Control (Hsp90 in HEPG2 lysate; [21]): 0.399 | FP signal, Fxn Control (Hsp90 in HEPG2 lysate; [22]): 0.1923 | FP signal, Fxn Control (Hsp90 in HEPG2 lysate; [23]): 0.976 | FP signal (raw) (Hsp90 in HEPG2 lysate; HepG2 lysate, 0.457 nM): 203 | FP signal (Hsp90 in HEPG2 lysate; [24]): 203 | FP signal (raw) (Hsp90 in HEPG2 lysate; HepG2 lysate, 1.372 nM): 203 | FP signal (Hsp90 in HEPG2 lysate; [25]): 203 | FP signal (raw) (Hsp90 in HEPG2 lysate; HepG2 lysate, 4.115 nM): 200 | FP signal (Hsp90 in HEPG2 lysate; [26]): 200 | FP signal (raw) (Hsp90 in HEPG2 lysate; HepG2 lysate, […] nM): 202 | FP signal (Hsp90 in HEPG2 lysate; [27]): 202 | FP signal (raw) (Hsp90 in HEPG2 lysate; HepG2 lysate, 37.037 nM): 198 | FP signal (Hsp90 in HEPG2 lysate; [28]): 198 | FP signal (raw) (Hsp90 in HEPG2 lysate; HepG2 lysate, 111.111 nM): 188 | FP signal (Hsp90 in HEPG2 lysate; [29]): 188 | FP signal (raw) (Hsp90 in HEPG2 lysate; HepG2 lysate, 333.333 nM): 165 | FP signal (Hsp90 in HEPG2 lysate; [30]): 165 | FP signal (raw) (Hsp90 in HEPG2 lysate; HepG2 lysate, 1000 nM): 83 | FP signal (Hsp90 in HEPG2 lysate; HepG2 lysate, 1000 nM compound): 83 | FP signal (raw) (Hsp90 in HEPG2 lysate; HepG2 lysate, 3000 nM): 40 | FP signal (Hsp90 in HEPG2 lysate; HepG2 lysate, 3000 nM compound): 40 | EC50 (Hsp90 in HEPG2 lysate; [31]): 664 nM

Cc1ccc(CON=C2C=CC=CC3OC3CC(C)OC(=O)c3c(O)cc(O)c(Cl)c3C2)cc1 (mixture of isomers) [compound 218]
Ratio re. GdA ([1]; SC5314 lysate): 57.1252 | FP signal (raw) ([1]; SC5314 lysate, 0.457 nM): 202 | FP signal relative to 0 nM [1, 2]: 0.9806 | FP signal [1, 2]: 202 | FP signal (raw) ([1]; SC5314 lysate, 1.372 nM): 199 | FP signal relative to 0 nM [1, 3]: 0.966 | FP signal [1, 3]: 199 | FP signal (raw) ([1]; SC5314 lysate, 4.115 nM): 200 | FP signal relative to 0 nM [1, 4]: 0.9709 | FP signal [1, 4]: 200 | FP signal (raw) ([1]; SC5314 lysate, […] nM): 199 | FP signal relative to 0 nM [1, 5]: 0.966 | FP signal [1, 5]: 199 | FP signal (raw) ([1]; SC5314 lysate, 37.037 nM): 200 | FP signal relative to 0 nM [1, 6]: 0.9709 | FP signal [1, 6]: 200 | FP signal (raw) ([1]; SC5314 lysate, 111.111 nM): 197 | FP signal relative to 0 nM [1, 7]: 0.9563 | FP signal [1, 7]: 197 | FP signal (raw) ([1]; SC5314 lysate, 333.333 nM): 171 | FP signal relative to 0 nM [1, 8]: 0.8301 | FP signal [1, 8]: 171 | FP signal (raw) ([1]; SC5314 lysate, 1000 nM): 108 | FP signal relative to 0 nM [1, 9]: 0.5243 | FP signal [1, 9]: 108 | FP signal (raw) ([1]; SC5314 lysate, 3000 nM): 45 | FP signal relative to 0 nM [1, 10]: 0.2184 | FP signal [1, 10]: 45 | HepG2/SC5314 [1, 11]: 1.973 | HepG2/SC5314 [1, 12]: 1.973 | Ratio rel. GdA (HepG2) (Hsp90 in HEPG2 lysate; [13]): 112.714 | Ratio rel. GdA (HepG2) (Hsp90 in HEPG2 lysate; [14]): 112.714 | FP signal, Fxn Control (Hsp90 in HEPG2 lysate; [15]): 0.9811 | FP signal, Fxn Control (Hsp90 in HEPG2 lysate; [16]): 0.9953 | FP signal, Fxn Control (Hsp90 in HEPG2 lysate; [17]): 0.9858 | FP signal, Fxn Control (Hsp90 in HEPG2 lysate; [18]): 0.9906 | FP signal, Fxn Control (Hsp90 in HEPG2 lysate; [19]): 0.9811 | FP signal, Fxn Control (Hsp90 in HEPG2 lysate; [20]): 0.9575 | FP signal, Fxn Control (Hsp90 in HEPG2 lysate; [21]): 0.8066 | FP signal, Fxn Control (Hsp90 in HEPG2 lysate; [22]): 0.4009 | FP signal, Fxn Control (Hsp90 in HEPG2 lysate; [23]): 0.9906 | FP signal (raw) (Hsp90 in HEPG2 lysate; HepG2 lysate, 0.457 nM): 210 | FP signal (Hsp90 in HEPG2 lysate; [24]): 210 | FP signal (raw) (Hsp90 in HEPG2 lysate; HepG2 lysate, 1.372 nM): 208 | FP signal (Hsp90 in HEPG2 lysate; [25]): 208 | FP signal (raw) (Hsp90 in HEPG2 lysate; HepG2 lysate, 4.115 nM): 211 | FP signal (Hsp90 in HEPG2 lysate; [26]): 211 | FP signal (raw) (Hsp90 in HEPG2 lysate; HepG2 lysate, […] nM): 209 | FP signal (Hsp90 in HEPG2 lysate; [27]): 209 | FP signal (raw) (Hsp90 in HEPG2 lysate; HepG2 lysate, 37.037 nM): 210 | FP signal (Hsp90 in HEPG2 lysate; [28]): 210 | FP signal (raw) (Hsp90 in HEPG2 lysate; HepG2 lysate, 111.111 nM): 208 | FP signal (Hsp90 in HEPG2 lysate; [29]): 208 | FP signal (raw) (Hsp90 in HEPG2 lysate; HepG2 lysate, 333.333 nM): 203 | FP signal (Hsp90 in HEPG2 lysate; [30]): 203 | FP signal (raw) (Hsp90 in HEPG2 lysate; HepG2 lysate, 1000 nM): 171 | FP signal (Hsp90 in HEPG2 lysate; HepG2 lysate, 1000 nM compound): 171 | FP signal (raw) (Hsp90 in HEPG2 lysate; HepG2 lysate, 3000 nM): 85 | FP signal (Hsp90 in HEPG2 lysate; HepG2 lysate, 3000 nM compound): 85 | EC50 (Hsp90 in HEPG2 lysate; [31]): 2500 nM

CC1(C)CC(=O)c2c(C(F)(F)F)nn(-c3ccc(C(N)=O)c(N[C@H]4CC[C@H](O)CC4)c3)c2C1 [SNX]
EC50 (Hsp90 in HEPG2 lysate; read-out: FP EC50, Human lysate, rounded summary): 40.1 nM

CCNC(=O)c1noc(-c2cc(C(C)C)c(O)cc2O)c1-c1ccc(CN2CCOCC2)cc1 [AUY9222]
EC50 (Hsp90 in HEPG2 lysate; Human lysate, refit block, unit inferred): 6.26 nM
